Earlier results as cited in US20030004236A1, “Magnetic resonance imaging agents for detection and delivery of therapeutic agents and detection of physiological substances” (priority 2001, published 2003).

Settings: thermodynamic stability of the Gd(III) chelate; background section

Question: For `O=C([O-])CN(CCN(CC(=O)[O-])CC(=O)[O-])CCN(CC(=O)[O-])CC(=O)[O-].[Gd+3]` [Gd(DTPA)^2−], which “stability constant (K), also known as formation constant, logK” value is on record?
Answer: The value was 22.4.

Question: For `O=C([O-])CN1CCN(CC(=O)[O-])CCN(CC(=O)O)CCN(CC(=O)[O-])CC1.[Gd+3]` [Gd-DOTA], which “stability constant (K), also known as formation constant, logK” value is on record?
Answer: The value was 28.5.
